Reference: patent publication US20050215601A1, “Therapeutic agent for rheumatic disease comprising benzamide derivative as active ingredient” (SANTEN PHARMACEUTICAL CO., LTD., priority 2002, published 2005)

System: type II collagen-induced arthritis of rats
Experiment: Effects on type II collagen-induced arthritis (hind paw volume)
Format: in vivo, rat
Conditions: rats (female) sensitized with bovine type II collagen; test compound 6 mg/kg orally immediately before, 7 and 14 days after primary sensitization; average of eight per group; FIG. 1
Procedure: 1) Effects on Type II Collagen-Induced Arthritis
Model of type II collagen-induced arthritis has been widely used as an animal model for evaluating effects of drugs on rheumatic diseases (Nature, 283, 666-668 (1980)). Anti-arthritic effects of the present compounds were evaluated and studied according to this model.
A solution of bovine joint cartilage-derived type II collagen in 0.05 N acetic acid (2 mg/ml) was mixed with Freund's incomplete adjuvant of the same volume to prepare an emulsion (final concentration: 1 mg/ml).
As a primary sensitization, this emulsion was injected intradermally into five sites on the back of each rat (female, seven weeks old, weight: approximately 130 to 160 g) at a dose of 100 μl (total 500 μl: corresponding to 500 μg of type II collagen per rat). Seven days after the primary sensitization, 100 μl of this emulsion was injected intradermally into a root of the rat tail again (secondary sensitization). 0.5 ml/kg of a test compound solution (the test compound was dissolved in a 5% carboxymethylcellulose solution as a vehicle) was orally administered immediately before the primary sensitization, 7 days after the primary sensitization and 14 days after the primary sensitization. The dosage of test compound was adjusted to 6 mg/kg. […]

Nc1ccccc1NC(=O)c1ccc(CNC(=O)COc2cccnc2)cc1 [Test compound 2, N-(2-aminophenyl)-4-[N-(pyridin-3 yl)oxyacetylaminomethyl]benzamide]
increase in hind paw volume: any increase in hind paw volume could not be found
